Measured values from PMC10952535, “The differential binding and biological efficacy of auxin herbicides” (Pest Management Science, 2022).
Read-outs that look alike come from different tables or passages of the source.

Assays:
[1] = tested on: Arabidopsis thaliana afb5‐1 seedlings; assay: Root growth inhibition bioassay, afb5‐1 mutant; format: in vivo; conditions: afb5‐1 vs WT dose-response, 8 days
Method: A. thaliana seed was surface sterilized in 10 mL of 50% bleach and two drops of Tween‐20 for 12 min and rinsed six times with sterile water. Sterile growth media consisted of half‐strength Murashige and Skoog salts supplemented with 0.4% agar and 0.8% sucrose. In a laminar flow hood, 8 mL of liquid media was transferred to sterile test‐tubes placed in a heat block to maintain media in a liquid state. Compounds were previously diluted in 50/50 DMSO/water to a known molar concentration. A 50‐μL aliquot of diluted compound was added to each tube to give a specified final concentration, normally 10, 1, 0.1, 0.01 or 0.001 μM. A single tube was treated with solvent only as a control. Test compounds were mixed into the media by pipetting up and down three times, then 6 mL of media with test compound was added to one well in a six‐well plate, working from low‐to‐high concentration, and allowed to solidify in the laminar flow hood. Approximately 15 sterilized seeds were placed on the solidified surface and the remaining 2 mL of liquid media was added to cover and disperse seeds. Plates were sealed with paraffin and moved to a Conviron growth chamber set to 60% humidity, 25 °C and light intensity 100 μE m^2 s^−1 with a 16 h photoperiod. After 8 days primary root measurements of five random plants were taken by removing plants from media and measuring with a ruler. Treatments were compared against the solvent control to determine percentage root growth inhibition. Each experiment was run twice and averages were combined for analysis.

[2] = tested on: Arabidopsis thaliana wild type (WT) Col‐0; assay: Foliar efficacy bioassay, wild type; format: in vivo; conditions: foliar application; for GR50 (DW % of NT): dry weight at 14 DAT
Method: (§1) Bioassays were carried out with the model species Arabidopsis thaliana. The wild type (WT) Col‐0 line was compared to an afb5‐1 mutant line in a Col‐0 background containing a missense mutation of R609K.[11] A. thaliana seeds were sown on Metro‐mix 360 potting mix (Sungro Horticulture) supplemented with vermiculite and stratified for 3 days at 4 °C in the dark. Flats were moved to a growth chamber (as above) and a plastic lid was placed on the flat. On germination, the lid was removed. After 2 weeks in the growth chamber, seedlings were transplanted into 3‐in. pots with Metro‐mix 360 potting mix and moved to a greenhouse. The greenhouse was maintained at a day/night temperature of 23/22 °C and supplemented with light to complete a 16 h photoperiod. Plants were allowed to recover from transplanting for 1 week prior to applications. A. thaliana seedlings were sprayed with test compounds at five rates with four replications. Tests included nontreated and solvent check controls. Individual compound doses varied and were based on plate test data or anecdotal potency. Compounds were formulated as technical material and were initially dissolved in 1 part 97:3 (v/v) acetone: dimethylsufoxide (DMSO) followed by 5 parts 1.5% (v/v) Agridex crop oil concentrate in distilled water to give a final concentration of 1.25% (v/v) Agridex. Formulated compounds were sprayed at a volume of 187 L ha^−1 at a spray height of 43 cm above the plants with an overhead Mandel track sprayer set with 8002 E Tee jet nozzle. Plants were treated at rosette stage just prior to or at initiation of bolting. After spray application, plants were allowed to dry then moved back to the greenhouse. Plants were grown in the greenhouse (same conditions as above) for 2 weeks until harvest. Visual injury/growth reduction observations were made at 7 and 14 days after treatment (DAT) and scored where 0% = no growth reduction and 100% = complete growth reduction or plant death. At 14 DAT the plants were harvested and dried to collect dry weight (DW) biomass.
(§2) The data collected in the foliar application of compounds generated a measure of sensitivity or dose response. The data was analyzed by regression in JMP 10.0 and fit to a nonlinear exponential three parameter fit model:
(§3) where a is the asymptote, b is the scale and c is the rate of growth. The model was used to determine the herbicidal dose that caused 50% reduction in growth (GR50). GR50 values were compared between mutant and WT to give an indication of fold resistance over WT (Table 3). A log‐logistic model[24] was also used to fit the data and gave similar GR50 values with greater standard errors without changing the pattern of responsiveness.

[3] = tested on: Arabidopsis thaliana afb5‐1 mutant line; format: in vivo; conditions: for GR50 (DW % of NT) / GR50 (visual injury): afb5‐1, foliar application; for GR50 (DW % of NT): dry weight at 14 DAT; for Resistance ratio (afb5‐1 vs WT), DW: ratio of dry weight GR50 values; for Resistance ratio (afb5‐1 vs WT), DW / Resistance ratio (afb5‐1 vs WT), visual injury: foliar application; for Resistance ratio (afb5‐1 vs WT), visual injury: ratio of visual injury GR50 values
Method: as §1, §2, §3

AtAFB2 [4] = target: T1, AtAFB2 (Arabidopsis thaliana, UniProt Q9LW29); assay: SPR relative binding (co-receptor complex formation with Aux/IAA7 degron), AtAFB2; conditions: 50 μM compound; for Relative binding (in words): compared to IAA; for % of IAA binding: normalized to IAA = 100%
T1 construct: His10 (N, cleaved yes); eGFP (N, cleaved yes); FLAG (N, cleaved yes); made in house; host or cells: baculovirus; Trichoplusia ni Hi5 cells (virus generated in Sf9)
T1 sequence (Q9LW29 whole entry, other chains not shown): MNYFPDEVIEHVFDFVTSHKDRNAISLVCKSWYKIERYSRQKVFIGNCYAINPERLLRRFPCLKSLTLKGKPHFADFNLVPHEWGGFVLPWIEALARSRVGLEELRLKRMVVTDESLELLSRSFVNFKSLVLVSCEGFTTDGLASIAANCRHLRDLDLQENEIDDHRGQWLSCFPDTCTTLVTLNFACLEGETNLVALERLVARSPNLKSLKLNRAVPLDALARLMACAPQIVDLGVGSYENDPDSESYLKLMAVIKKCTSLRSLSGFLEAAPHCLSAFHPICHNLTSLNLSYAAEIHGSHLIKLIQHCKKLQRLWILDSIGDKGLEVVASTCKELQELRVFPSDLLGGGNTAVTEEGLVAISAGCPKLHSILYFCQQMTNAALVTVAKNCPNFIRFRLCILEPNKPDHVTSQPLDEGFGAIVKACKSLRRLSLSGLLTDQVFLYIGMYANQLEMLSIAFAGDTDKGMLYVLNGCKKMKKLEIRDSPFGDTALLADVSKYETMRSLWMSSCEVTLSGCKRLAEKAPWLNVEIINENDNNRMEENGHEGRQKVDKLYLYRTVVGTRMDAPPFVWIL
T1 sequence (Q39255 whole entry partner, other chains not shown): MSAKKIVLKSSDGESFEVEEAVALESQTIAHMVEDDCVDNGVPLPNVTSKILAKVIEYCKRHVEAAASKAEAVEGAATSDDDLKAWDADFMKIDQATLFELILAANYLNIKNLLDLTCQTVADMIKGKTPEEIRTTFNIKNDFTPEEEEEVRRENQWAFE
Method: (§4) Auxin binding assays using surface plasmon resonance (SPR) were performed on a Biacore 2000 as described previously.[3], [18], [23] Protein was stored on ice and protein concentrations were assayed by A280 nm measurement (nanodrop, Thermo Scientific). Briefly, AtAux/IAA7 degron peptide was immobilized on streptavidin‐coated SPR chips, and binding was measured in the presence of IAA or auxin analogue by recruitment of the TIR1/AFB protein from solution as the co‐receptor complex formed on the chip. Kinetic analyses were performed by single cycle kinetics on a Biacore T200 (Cytiva Life Sciences), titrating compounds against a fixed concentration of TIR1 before injection. The degron peptide density on the chips was controlled so that R max < 300 Response UNits (RU).

AtTIR1 [5] = target: T2, AtTIR1 (Arabidopsis thaliana, UniProt Q570C0); assay: SPR relative binding (co-receptor complex formation with Aux/IAA7 degron), AtTIR1; conditions: 50 μM compound; for Relative binding (in words): compared to IAA; for % of IAA binding: normalized to IAA = 100%
T2 construct: His10 (N, cleaved yes); eGFP (N, cleaved yes); FLAG (N, cleaved yes); made in house; host or cells: baculovirus; Trichoplusia ni Hi5 cells (virus generated in Sf9)
T2 sequence (Q570C0 whole entry, other chains not shown): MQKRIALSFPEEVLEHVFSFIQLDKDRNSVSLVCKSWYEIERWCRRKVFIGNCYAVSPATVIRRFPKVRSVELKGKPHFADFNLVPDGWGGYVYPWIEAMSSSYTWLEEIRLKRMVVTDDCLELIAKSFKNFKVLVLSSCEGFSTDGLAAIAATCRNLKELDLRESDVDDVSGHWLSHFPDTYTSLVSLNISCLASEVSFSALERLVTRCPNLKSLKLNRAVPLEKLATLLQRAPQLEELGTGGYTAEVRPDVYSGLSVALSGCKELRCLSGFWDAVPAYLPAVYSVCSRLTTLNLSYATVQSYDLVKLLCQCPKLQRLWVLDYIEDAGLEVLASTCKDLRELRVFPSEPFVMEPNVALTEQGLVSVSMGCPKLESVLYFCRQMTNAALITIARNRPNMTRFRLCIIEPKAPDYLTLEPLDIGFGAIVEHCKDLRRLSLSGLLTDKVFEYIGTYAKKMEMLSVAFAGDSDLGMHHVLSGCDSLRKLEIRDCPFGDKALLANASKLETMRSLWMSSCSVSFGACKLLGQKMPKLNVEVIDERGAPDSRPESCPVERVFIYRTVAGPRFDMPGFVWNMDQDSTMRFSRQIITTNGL
T2 sequence (Q39255 whole entry partner, other chains not shown): as the sequence (Q39255 whole entry partner, other chains not shown) above
Method: as §4

AtAFB5 [6] = target: T3, AtAFB5 (Arabidopsis thaliana, UniProt Q9LTX2); assay: SPR relative binding (co-receptor complex formation with Aux/IAA7 degron), AtAFB5; conditions: 50 μM compound; for Relative binding (in words): compared to IAA; for % of IAA binding: normalized to IAA = 100%
T3 construct: His10 (N, cleaved yes); eGFP (N, cleaved yes); FLAG (N, cleaved yes); made in house; host or cells: baculovirus; Trichoplusia ni Hi5 cells (virus generated in Sf9)
T3 sequence (Q9LTX2 whole entry, other chains not shown): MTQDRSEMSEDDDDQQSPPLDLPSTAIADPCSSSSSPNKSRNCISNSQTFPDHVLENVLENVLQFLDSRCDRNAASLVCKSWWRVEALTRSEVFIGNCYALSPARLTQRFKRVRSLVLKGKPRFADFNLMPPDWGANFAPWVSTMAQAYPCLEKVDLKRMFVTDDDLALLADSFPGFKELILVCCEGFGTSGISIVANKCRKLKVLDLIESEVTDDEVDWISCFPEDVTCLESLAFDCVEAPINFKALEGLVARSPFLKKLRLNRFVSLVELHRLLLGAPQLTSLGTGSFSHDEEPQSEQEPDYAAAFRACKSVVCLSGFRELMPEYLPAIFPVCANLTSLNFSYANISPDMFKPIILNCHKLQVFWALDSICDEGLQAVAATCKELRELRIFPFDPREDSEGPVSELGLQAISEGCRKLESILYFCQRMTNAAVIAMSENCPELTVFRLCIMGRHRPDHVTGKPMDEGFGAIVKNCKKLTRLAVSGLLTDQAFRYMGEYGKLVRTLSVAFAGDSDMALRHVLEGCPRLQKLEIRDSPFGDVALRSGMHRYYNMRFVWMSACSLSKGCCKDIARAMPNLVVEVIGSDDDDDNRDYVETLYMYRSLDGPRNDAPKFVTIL
T3 sequence (Q39255 whole entry partner, other chains not shown): as the sequence (Q39255 whole entry partner, other chains not shown) above
Method: as §4

AtAFB2 [7] = target: T1, AtAFB2; assay: SPR single cycle kinetics, AtAFB2; format: binding
Method: as §4

AtAFB5 [8] = target: T3, AtAFB5; assay: biochemical; format: binding
Method: as §4

AtTIR1 [9] = target: T2, AtTIR1; assay: biochemical; format: binding
Method: as §4

[10] = averaged equilibrium dissociation constant, SPR single cycle kinetics, read-out: Ave KD

SMILES | Resistance of afb5‐1 in root growth inhibition (in words) [1] | GR50 (DW % of NT) [2] [g ai ha^−1] | GR50 (visual injury) [2] [g ai ha^−1] | GR50 (DW % of NT) [3] [g ai ha^−1] | GR50 (visual injury) [3] [g ai ha^−1] | Resistance ratio (afb5‐1 vs WT), DW [3] | Resistance ratio (afb5‐1 vs WT), visual injury [3] | Relative binding (in words) (AtAFB2 [4]) | Relative binding (in words) (AtTIR1 [5]) | Relative binding (in words) (AtAFB5 [6]) | Kd (AtAFB2 [7]; [10]) [µM] | Kd (AtAFB5 [8]; [10]) [µM] | Kd (AtTIR1 [9]; [10]) [µM] | % of IAA binding (AtAFB2 [4]) [%] | Kd (AtAFB2 [7]) [µM] | Kd (AtAFB5 [8]) [µM] | Kd (AtTIR1 [9]) [µM] | % of IAA binding (AtTIR1 [5]) [%] | % of IAA binding (AtAFB5 [6]) [%]
O=C(O)Cc1cccc2ccccc12 [1‐NAA, 1‐napthaleneacetic acid] | No resistance |  |  |  |  |  |  |  |  |  |  |  |  |  |  |  |  |  | 
Nc1nc(C2CC2)nc(C(=O)O)c1Cl [Aminocyclopyrachlor] | considerable resistance | 4.4 | 7 | 8.3 | 36.8 | 1.9 | 5.3 |  |  |  |  |  |  |  |  |  |  |  | 
Cc1cc(Cl)ccc1OCC(=O)O [MCPA, 2‐methyl‐4‐chlorophenoxyacetic acid] |  |  |  |  |  |  |  | lower binding | lower binding | lower binding |  |  |  |  |  |  |  |  | 
Nc1c(Cl)c(F)nc(OCC(=O)O)c1Cl [Fluroxypyr] |  | 35.7 | 234 | 84.1 | 310 | 2.4 | 1.3 | lower binding than IAA | lower binding than IAA | lower binding than IAA | 45 | 95 | 18 |  |  |  |  |  | 
CC(Oc1ccc(Cl)cc1Cl)C(=O)O (stereo not drawn) [dichlorprop] |  |  |  |  |  |  |  | lower binding | lower binding | lower binding |  |  |  |  |  |  |  |  | 
O=C(O)COc1ccc(Cl)cc1Cl [2,4‐D, 2,4‐dichlorophenoxyacetic acid] | No resistance | 3.9 | 19.2 | 9.9 | 40.5 | 2.5 | 2.1 |  |  |  |  |  |  | 22 | 392 | 152 | 229 | 29 | 40
COc1c(Cl)ccc(-c2cc(N)c(Cl)c(C(=O)O)n2)c1F [Halauxifen] | considerable resistance | 0.08 | 0.4 | 0.6 | 2.4 | 7.5 | 6 |  |  |  | 333 | 2.4 | 128 | < 5 |  |  |  | 10 | 170
Nc1c(F)c(-c2ccc(Cl)cc2)nc(C(=O)O)c1Cl [DAS534] |  |  | 0.4 | 1.2 | 4.3 |  | 10.8 |  |  | strong bias for binding to AtAFB5 |  |  |  |  |  |  |  |  | 
